# Assay: Human HepG2 cell viability assay in 384 well format
# Type: toxicity, cell-based
# Design: dose 125 nL, time 70.5 hour; cytotoxicity at 70.5 h: concentration not given beside the values
# Details: HepG2 cells, read-out: Inhibition
smiles,measurement,value
CCCc1noc(CCCC(=O)N2CCCC2c2cnn(C)c2)n1 (stereo not drawn),cytotoxicity at 70.5 h,-8.23%
O=C(c1ccc2c(c1)COC2)N1CCN(CCO)CC1,cytotoxicity at 70.5 h,-3.79%
CCn1ncc2c1CCCC2NCc1ccc(OC)c(F)c1 (stereo not drawn),cytotoxicity at 70.5 h,-9.63%
COCCNC(=O)CN1CCC(N2CCN(C)C2=O)CC1,cytotoxicity at 70.5 h,-13.2%
OC(COCc1ccccc1Cl)CN1CCC(c2ccn[nH]2)CC1 (stereo not drawn),cytotoxicity at 70.5 h,1.38%
CN(C)CC1CN(Cc2ccc(-n3cccn3)cc2)CCO1 (stereo not drawn),cytotoxicity at 70.5 h,0.969%
O=C(CN1CCCC1Cn1cccn1)NCCC1=CCCCC1 (stereo not drawn),cytotoxicity at 70.5 h,-9.89%
CCc1ccsc1C(=O)N1CCCN(Cc2cnn(CC)c2)CC1,cytotoxicity at 70.5 h,7.56%
CNC(=O)CCS(=O)(=O)Cc1cc(Cl)c2c(c1)OCCO2,cytotoxicity at 70.5 h,-3.97%
CC(=O)c1ccc(S(=O)(=O)NCc2cccnc2N(C)C)cc1,cytotoxicity at 70.5 h,-3.14%
COC(=O)c1cccc(S(=O)(=O)NCc2cccnc2N(C)C)c1,cytotoxicity at 70.5 h,-2.85%
O=C(CN1CCC(c2ccnn2CCO)CC1)NCC1CCCCC1,cytotoxicity at 70.5 h,-3.43%
COc1c(C)cnc(CN2CCOC(Cn3nc(C)cc3C)C2)c1C (stereo not drawn),cytotoxicity at 70.5 h,-2.15%
CCOc1ccnc(N2CCN(C(=O)c3ccoc3C)CC2)n1,cytotoxicity at 70.5 h,-3.63%
Nc1cc2c(nn1)CCN(C(=O)CCC1CCCCC1)C2,cytotoxicity at 70.5 h,-11.1%
Nc1cc2c(nn1)CCN(C(=O)CCCC1CCCCC1)C2,cytotoxicity at 70.5 h,-13.1%
CC(=O)NCCNC(=O)CN1CCCCC1Cn1cncn1 (stereo not drawn),cytotoxicity at 70.5 h,-8.39%
c1cn(-c2ccc(CN3CCOC(Cn4cncn4)C3)cc2)cn1 (stereo not drawn),cytotoxicity at 70.5 h,-7.67%
Nc1cc2c(nn1)CCN(C(=O)CC1CCCCC1)C2,cytotoxicity at 70.5 h,-8.85%
COc1c(C)cnc(CN2CCOC(Cn3cc(C)cn3)C2)c1C (stereo not drawn),cytotoxicity at 70.5 h,0.484%
CCOc1ccnc(N2CCCN(C(=O)c3cc[nH]c3C)CC2)n1,cytotoxicity at 70.5 h,17.6%
Cn1cc(C2CCCN2Cc2cscn2)cn1 (stereo not drawn),cytotoxicity at 70.5 h,-2.56%
CS(=O)(=O)NCCN1CCCC1c1ccc(Cl)cc1 (stereo not drawn),cytotoxicity at 70.5 h,12%
Cc1nn(C)c(N2CCOCC2)c1CNC1COc2ccccc2C1 (stereo not drawn),cytotoxicity at 70.5 h,27.5%
CN(C)S(=O)(=O)CCCN1CCCC1c1noc(C2CC2)n1 (stereo not drawn),cytotoxicity at 70.5 h,22.8%
Clc1snnc1CN1CCCC1Cn1cncn1 (stereo not drawn),cytotoxicity at 70.5 h,53.6%
COc1cc(C(=O)Nc2nc(C)no2)ccc1OC1CCCC1,cytotoxicity at 70.5 h,-4.68%
Cc1nn(C)c(N2CCOCC2)c1CNC1CCC(O)CC1 (stereo not drawn),cytotoxicity at 70.5 h,-1.76%
Cc1nn(C)c(N2CCOCC2)c1CNC1CCN(C2CC2)CC1,cytotoxicity at 70.5 h,-6.05%
CC(NC(=O)NCCCc1n[nH]c(N)c1C#N)c1ccc(F)c(F)c1 (stereo not drawn),cytotoxicity at 70.5 h,-2.56%
CCOc1ncccc1NC(=O)NCC(C)O (stereo not drawn),cytotoxicity at 70.5 h,-3.67%
COc1cc(C(=O)Nc2nc(C)no2)cc(OC)c1Br,cytotoxicity at 70.5 h,27.4%
CCn1cc(NC(=O)NCC(O)COc2ccccc2)cn1 (stereo not drawn),cytotoxicity at 70.5 h,-7.02%
Cc1nn(C)c(N2CCOCC2)c1CNC1CCc2ccccc21 (stereo not drawn),cytotoxicity at 70.5 h,-7.04%
CCCNC(=O)C1CCN(Cc2csc(CC)n2)CC1,cytotoxicity at 70.5 h,0.277%
Cc1ccc(C(=O)N(C2CC2)C2CC(=O)NC2=O)cc1F (stereo not drawn),cytotoxicity at 70.5 h,-3.53%
CCN1CCN(C2CCN(Cc3nc(C4CC4)no3)CC2)C1=O,cytotoxicity at 70.5 h,-5.25%
CCCNC(=O)C1CCN(Cc2csc(C(C)C)n2)CC1,cytotoxicity at 70.5 h,16.4%
O=C1CC(N(C(=O)c2ccc(Cl)c(Cl)c2)C2CC2)C(=O)N1 (stereo not drawn),cytotoxicity at 70.5 h,-4.14%
Cc1ccc(-c2nc(CN3CCOC(Cn4cccn4)C3)no2)cc1 (stereo not drawn),cytotoxicity at 70.5 h,-4.16%
CCc1nc(CN(C(C)=O)C2CCN(Cc3csc(C)n3)C2)no1 (stereo not drawn),cytotoxicity at 70.5 h,-2.47%
Cc1cc(C(=O)NS(C)(=O)=O)c(C)n1-c1ccccc1,cytotoxicity at 70.5 h,-13.1%
O=C(CCN1C(=O)CCC1=O)NCC1(c2c(F)cccc2F)CCCC1,cytotoxicity at 70.5 h,-11.2%
COc1cccc(-n2c(C)cc(C(=O)NCCCC(N)=O)c2C)c1,cytotoxicity at 70.5 h,-10.3%
COc1cccc(-n2c(C)cc(C(=O)NC(C)(C)C(N)=O)c2C)c1,cytotoxicity at 70.5 h,-15.2%
COc1ccc(C2=CCN(C(=O)CN(C)Cc3ccco3)CC2)cc1,cytotoxicity at 70.5 h,-11.2%
Cc1cc(CN2CCN(CC(O)c3cccc(F)c3)CC2)no1 (stereo not drawn),cytotoxicity at 70.5 h,-4.25%
Cc1cc(CN2CCN(CC(O)c3ccc(Cl)cc3)CC2)no1 (stereo not drawn),cytotoxicity at 70.5 h,-11.9%
Cc1cnn(CC2CN(c3nc4ccccc4o3)CCO2)c1 (stereo not drawn),cytotoxicity at 70.5 h,16.4%
Cc1cc(NC(=O)c2ccc(-n3ncc(C#N)c3N)cc2)n(C)n1,cytotoxicity at 70.5 h,-8.66%
Cc1cccnc1NC(=O)c1ccc(-n2ncc(C#N)c2N)cc1,cytotoxicity at 70.5 h,-4.45%
COc1cccc2cc(CNC(=O)N3CCOC(C)(C)C3)oc12,cytotoxicity at 70.5 h,14%
c1ccc(OCCNC2CCCN(Cc3noc(C4CC4)n3)C2)cc1 (stereo not drawn),cytotoxicity at 70.5 h,-7.17%
Cc1nc(C)n(CC2CCCCN2CCOc2ccc(C#N)cc2)n1 (stereo not drawn),cytotoxicity at 70.5 h,-9.43%
Cc1cc(C)n(C2CCCN(C(=O)CCOc3ccccc3F)C2)n1 (stereo not drawn),cytotoxicity at 70.5 h,-9.17%
COc1cccc2cc(CNC(=O)N3CCS(=O)(=O)CC3)oc12,cytotoxicity at 70.5 h,12.1%
COc1cccc2cc(CNC(=O)N3CCC(N4CCCC4)C3)oc12 (stereo not drawn),cytotoxicity at 70.5 h,-4.76%
CC(=O)c1cccc(OCC(=O)NS(=O)(=O)c2cccs2)c1,cytotoxicity at 70.5 h,-6.58%
CCc1n[nH]c(C2CN(C(=O)c3cc4c(s3)CCC4)CCO2)n1 (stereo not drawn),cytotoxicity at 70.5 h,-4.28%
Brc1cccc(-c2nnc(CNCCn3cccn3)o2)c1,cytotoxicity at 70.5 h,-10.8%
CC(NC(=O)NCCn1ccnc1)c1ccc2c(c1)OCCO2 (stereo not drawn),cytotoxicity at 70.5 h,-14.3%
Brc1ccccc1-c1nnc(CNCCn2cccn2)o1,cytotoxicity at 70.5 h,12.2%
Clc1cccc(Cl)c1-c1nnc(CNCCn2cccn2)o1,cytotoxicity at 70.5 h,-4.1%
Cc1ccccc1C1(CNC(=O)CCN2C(=O)CCC2=O)CC1,cytotoxicity at 70.5 h,-12.8%
CN1CCOC(CNCc2coc(-c3cccc(Cl)c3)n2)C1 (stereo not drawn),cytotoxicity at 70.5 h,-0.236%
Cc1ccc(C(CNC(=O)c2c(C)noc2C(C)C)N(C)C)cc1 (stereo not drawn),cytotoxicity at 70.5 h,-4.44%
CCN1CCN(C(=O)c2cnc3c(cnn3C3CCCC3)c2)CC1,cytotoxicity at 70.5 h,-6.55%
CCc1cnc(CN(C(C)=O)C2CCN(CCc3cccs3)C2)o1 (stereo not drawn),cytotoxicity at 70.5 h,8.24%
CC(C)N1CC(C(=O)NCCOc2ccc3c(c2)OCO3)CC1=O (stereo not drawn),cytotoxicity at 70.5 h,1.18%
COc1ccc(C2=CCN(C(=O)C3CCCN(C(N)=O)C3)CC2)cc1 (stereo not drawn),cytotoxicity at 70.5 h,-6.51%
O=C(Nc1cccc(CNCc2cccs2)c1)C1CCCC1,cytotoxicity at 70.5 h,-15%
Cn1ncc2c(=O)[nH]c(CN3CCCC3Cc3ccccc3)nc21 (stereo not drawn),cytotoxicity at 70.5 h,-13.7%
Cn1ncc2c(=O)[nH]c(CN3CCC(Cc4ccccc4)CC3)nc21,cytotoxicity at 70.5 h,34.8%
COc1cc(C(=O)N(Cc2cnn(C)c2)C(C)C)ccc1OCC(N)=O,cytotoxicity at 70.5 h,4.9%
CC(NC(=O)NCC1(c2ccc(F)cc2)CCC1)c1nncn1C (stereo not drawn),cytotoxicity at 70.5 h,-16.8%
CCc1ccc(S(=O)(=O)Nc2c(C)cccc2C(=O)O)s1,cytotoxicity at 70.5 h,18.4%
Cc1cn2c(n1)CCC(NC(=O)CCC(F)(F)F)C2 (stereo not drawn),cytotoxicity at 70.5 h,-3.72%
CCCc1n[nH]c(C2CN(C(=O)c3cc(F)ccc3OC)CCO2)n1 (stereo not drawn),cytotoxicity at 70.5 h,-23.2%
Cc1ncc2c(n1)CCN(C(=O)Cc1c(C)noc1C)C2,cytotoxicity at 70.5 h,22.9%
COCCN1CCC(NC(=O)C2(c3cc(C)cc(C)c3)CC2)CC1,cytotoxicity at 70.5 h,-11.3%
CCN1CCOC(CNCc2ccccc2OCC(=O)N(C)C)C1 (stereo not drawn),cytotoxicity at 70.5 h,-4.93%
COc1ccc(C(=O)N(Cc2cnn(C)c2)C(C)C)cc1Br,cytotoxicity at 70.5 h,-9.53%
COc1ccc(C2=CCN(C(=O)C3CC(=O)N(C4CC4)C3)CC2)cc1 (stereo not drawn),cytotoxicity at 70.5 h,-12.9%
O=C(CN1CCCC1Cn1cncn1)NCCOc1cccc(F)c1 (stereo not drawn),cytotoxicity at 70.5 h,-14.6%
CCCc1n[nH]c(C2CN(C(=O)c3ccco3)CCO2)n1 (stereo not drawn),cytotoxicity at 70.5 h,-10.8%
CC(C)OCCC(=O)N(C)CCCc1cc(-c2ccccc2)no1,cytotoxicity at 70.5 h,42.3%
Cc1ncsc1C(=O)NCCSCCCO,cytotoxicity at 70.5 h,9.95%
CC(=O)NCc1ccc(C(=O)N2CCCCC2Cn2cccn2)o1 (stereo not drawn),cytotoxicity at 70.5 h,8.35%
Cc1csc(CNC(=O)N(C)Cc2cnn(C)c2)n1,cytotoxicity at 70.5 h,-15.5%
Cc1cc(C2CCCN2CC(=O)N(CCC#N)c2ccccc2F)on1 (stereo not drawn),cytotoxicity at 70.5 h,-12.2%
CN(CC(=O)N1CCC(Oc2ccccc2)CC1)c1cnccn1,cytotoxicity at 70.5 h,-13.9%
Cn1ccnc1CN1CCN(c2ccc(C#N)cn2)CC1,cytotoxicity at 70.5 h,-13.3%
Cn1ccnc1CN1CCN(c2ccc(C#N)cc2F)CC1,cytotoxicity at 70.5 h,-7.5%
Clc1cc(CN2CCCC2Cn2cncn2)c2ncccc2c1 (stereo not drawn),cytotoxicity at 70.5 h,-20.8%
Clc1ccc2cccnc2c1CN1CCCC(Cn2cncn2)C1 (stereo not drawn),cytotoxicity at 70.5 h,-14.3%
CCCOc1cccc(CNC(=O)CN2CCN(C)CC2C)c1 (stereo not drawn),cytotoxicity at 70.5 h,-13.5%
CC(C)c1nc(C2CCCN2C(=O)c2cnc[nH]2)no1 (stereo not drawn),cytotoxicity at 70.5 h,21.4%
CNc1nc(CNC(=O)Nc2cccc(-c3nnco3)c2)cs1,cytotoxicity at 70.5 h,-18.7%
CCOc1ccc(NC(=O)NCc2csc(NC)n2)cc1C,cytotoxicity at 70.5 h,-5.86%
CN(CCC#N)C(=O)CN1CCCC1c1ccsc1 (stereo not drawn),cytotoxicity at 70.5 h,22.4%
N#CCCN(C(=O)CN1CCCC1c1ccsc1)c1ccccc1F (stereo not drawn),cytotoxicity at 70.5 h,-14%
Cc1ccc(CC(=O)N2CCCC(c3cc(C)[nH]n3)C2)cn1 (stereo not drawn),cytotoxicity at 70.5 h,-7.57%
OCCn1cc(CN2CCN(CCOc3ccccc3F)CC2)cn1,cytotoxicity at 70.5 h,16.6%
O=C(CN1CCOC(Cn2cccn2)C1)NCCc1ccc(F)cc1 (stereo not drawn),cytotoxicity at 70.5 h,-13.9%
CCc1nc(CN2CCCN(C(=O)c3cnc[nH]3)CC2)cs1,cytotoxicity at 70.5 h,-14.3%
Cc1ccc(CC(=O)N2CCCC(c3nc(C)cs3)C2)cn1 (stereo not drawn),cytotoxicity at 70.5 h,-17.4%
CCN(CC)Cc1ccc(C(=O)N2CCCCC2Cn2cccn2)o1 (stereo not drawn),cytotoxicity at 70.5 h,-13.1%
CC(=O)N(Cc1ncc(C(C)C)o1)C1CCN(Cc2nccn2C)C1 (stereo not drawn),cytotoxicity at 70.5 h,-0.826%
CC(=O)N(Cc1ncc(C(C)C)o1)C1CCN(CCn2cccn2)C1 (stereo not drawn),cytotoxicity at 70.5 h,4.58%
CC(C)(C)c1nnc(CN2CCCC2c2noc(C3CC3)n2)o1 (stereo not drawn),cytotoxicity at 70.5 h,-8.8%
Cc1ncc2c(n1)CN(Cc1nnc(Cc3ccccc3)o1)CC2,cytotoxicity at 70.5 h,-3.37%
c1cnn(CC2CCCN2c2ncnc3ccsc23)c1 (stereo not drawn),cytotoxicity at 70.5 h,10.7%
Cc1ccc(CNC(c2ccccc2)c2nccn2C)cc1C (stereo not drawn),cytotoxicity at 70.5 h,-7.63%
COc1ccc(-n2ccc(C(=O)N3CCC(C(N)=O)C3)n2)cc1 (stereo not drawn),cytotoxicity at 70.5 h,23.5%
COc1c(CNCCNC(=O)c2ccco2)c(C)nn1C,cytotoxicity at 70.5 h,-10.7%
CNC(=O)C1CCN(C(=O)CCn2cccn2)CC1,cytotoxicity at 70.5 h,26.7%
Cc1ccc2c(c1)CCC2NCc1c(C)nn(C)c1N1CCOCC1 (stereo not drawn),cytotoxicity at 70.5 h,-1.48%
O=C(Nc1cccc(CNCc2csc(Br)c2)c1)C1CC1,cytotoxicity at 70.5 h,4.95%

# From ChEMBL document CHEMBL3507680, “University of Dundee, Gates Library screen for HepG2 cell viability”
